Laboratory results: patent US20250205341A1, “PROTEIN DELIVERY COMPOSITION CONTAINING BILE SALT AND CATIONIC PEPTIDE AND USE THEREOF” (BION INC., priority 2022, published 2025)
Non-standard residues stand in square brackets, D forms with d. No end group written: not given here.

Experiments:
Type in all cases: in vivo
[1] = system: C57BL/6 mice maintaining normal blood glucose levels; experiment: Insulin absorption upon oral administration (into the stomach using a zonde), blood glucose lowering; settings: 100 mM taurocholate + 2U/kg insulin + 0.1, 1, 10 μM SEQ6 or 1, 10, 100 μM SEQ2; FIG. 2
Description: Examination was made of the change in insulin absorption upon oral administration of bile salts and/or peptides represented by SEQ ID NOS: 1 to 18. The absorption rate of insulin was indicated by measuring the blood glucose-lowering rate after insulin administration.
Specifically, C57BL/6 mice maintaining normal blood glucose levels were prepared, and blood glucose levels were measured using an Accu-Chek glucometer before administering insulin with bile salts and/or cationic peptides. Insulin, along with bile salts and/or cationic peptides, was administered directly into the stomach using a zonde, and blood glucose changes were measured over time.

[2] = system: C57BL/6 mice maintaining normal blood glucose levels; experiment: Insulin absorption upon topical (skin) application, blood glucose change; settings: 50 μl on shaved skin, with mixture of taurocholate and SEQ6; FIG. 8
Text: Examination was made of the change in insulin absorption upon topical application due to bile salts and/or peptides represented by SEQ ID NO: 1 to SEQ ID NO: 18. The absorption rate of insulin was indicated by measuring the blood glucose-lowering rate after insulin administration. Specifically, C57BL/6 mice maintaining normal blood glucose levels were shaved on the back using a depilatory cream the day before the experiment. On the day of the experiment, the mice were anesthetized by intraperitoneal injection of Ketamine/Xylazine (100 mg/kg and 10 mg/kg, respectively). After confirming stable anesthesia, blood glucose levels were measured using an Accu-Chek glucometer before administering insulin with bile salts and/or cationic peptides. A 50 μl volume of the solution was applied to the shaved skin, and blood glucose changes were measured over time.

[3] = system: C57BL/6 mice maintaining normal blood glucose levels; experiment: Insulin absorption in sublingual mucosal tissue, blood glucose lowering after sublingual administration; settings: sublingual 10 μl; 100 mM taurocholate and/or 1 μM SEQ6 with 2U/kg insulin; FIG. 1
Description: All cationic peptides used in the experiment were synthesized by AnyGen Co., Ltd. The absorption rate of insulin was indicated by measuring the blood glucose-lowering rate after insulin administration.
Specifically, C57BL/6 mice (Orient Bio, Korea) maintaining normal blood glucose levels were anesthetized by intraperitoneal injection of Ketamine/Xylazine (100 mg/kg and 10 mg/kg, respectively) (BK Pharm, Korea). […] Each experimental group received 10 μl of the solution administered to the sublingual mucosa, and blood glucose changes were measured over time.

Row | Substance | insulin absorption (blood glucose-lowering effect) upon oral administration [1] | blood glucose-lowering effect of insulin upon topical application [2] | blood glucose-lowering rate by insulin (insulin absorption through sublingual mucosal tissue) [3]
1 | RRRRRR [SEQ2] | significantly increases in a dose-dependent manner |  | 
2 | insulin: insulin (Humulin N, Korea Lilly, Korea) |  | excellent blood glucose-lowering effect | 
3 | rrrrrr ([dR][dR][dR][dR][dR][dR]) [SEQ6] | significantly increases in a dose-dependent manner |  | low
